Test system: patients with advanced or metastatic solid tumors
Test: Trial 1403-0001 Phase Ia dose escalation, Arm B (D1 D8 q4w): adverse events
Format: in vivo
Conditions: Arm B D1 D8 q4w
Procedure: The Phase Ia dose escalation part aimed to define the Maximum Tolerated Dose (MTD) and the Recommended Dose for Expansion (RDE) for the MDM2-antagonist of formula I based on safety and tolerability, pharmacokinetics, pharmacodynamics, and preliminary efficacy. The RDE will be further explored in the Phase Ib expansion part of the trial.
Dose levels evaluated in Arm A were 10, 20, 30, 45, 50, 60, and 80 mg. Dose levels evaluated in Arm B (referring to the dose administered on Day 1 and Day 8) were 5, 10, 15, 20, 30, 45, and 60 mg.

Cc1c(C(=O)O)ccc2c3n(nc12)[C@@H]1[C@H](C3)N(CC2CC2)[C@@]2(C(=O)Nc3cc(Cl)ccc32)[C@H]1c1cccc(Cl)c1F [MDM2-antagonist of formula I, (2′S,3′S,3a'S,10a'S)-6-chloro-3′-(3-chloro-2-fluorophenyl)-1′-(cyclopropylmethyl)-6′-methyl-2-oxo-1,2,3′,3a′,10′,10a′-hexahydro-1′H-spiro[indole-3,2′-pyrrolo[2′,3′:4,5]pyrrolo[1,2-b]indazole]-7′-carboxylic acid]
AEs leading to Discontinuation: Dose limiting toxicity, % (5 mg): 0%
AEs leading to Discontinuation: Other adverse event, % (5 mg): 0%
Patients with Dose limiting toxicity, % (5 mg): 0%
Serious AEs: Cogenital Anomaly or Birth Defect, % (5 mg): 0%
Serious AEs: Is Life Threatening, % (5 mg): 0%
Serious AEs: Other Medically Important Serious Event, % (5 mg): 0%
Serious AEs: Persists of Signif. Disability/Incapacity, % (5 mg): 0%
Serious AEs: Requires or Prolongs Hospitalization, % (5 mg): 0%
Serious AEs: Results in Death, % (5 mg): 0%
Subjects with AEs leading to Discontinuation of trial drug, % (5 mg): 0%
Subjects with AEs leading to dose reduction of trial drug, % (5 mg): 0%
Subjects with any AE, % (5 mg): 100%
Subjects with investigator defined drug-related AEs, % (5 mg): 33.3%
Subjects with maximum CTC Grade 1, % (5 mg): 66.7%
Subjects with maximum CTC Grade 2, % (5 mg): 33.3%
Subjects with maximum CTC Grade 3, % (5 mg): 0%
Subjects with maximum CTC Grade 4, % (5 mg): 0%
Subjects with maximum CTC Grade 5, % (5 mg): 0%
Subjects with serious AEs, % (5 mg): 0%
AEs leading to Discontinuation: Dose limiting toxicity, % (10 mg): 0%
AEs leading to Discontinuation: Other adverse event, % (10 mg): 0%
Patients with Dose limiting toxicity, % (10 mg): 0%
Serious AEs: Cogenital Anomaly or Birth Defect, % (10 mg): 0%
Serious AEs: Is Life Threatening, % (10 mg): 0%
Serious AEs: Other Medically Important Serious Event, % (10 mg): 0%
Serious AEs: Persists of Signif. Disability/Incapacity, % (10 mg): 0%
Serious AEs: Requires or Prolongs Hospitalization, % (10 mg): 33.3%
Serious AEs: Results in Death, % (10 mg): 0%
Subjects with AEs leading to Discontinuation of trial drug, % (10 mg): 0%
Subjects with AEs leading to dose reduction of trial drug, % (10 mg): 33.3%
Subjects with any AE, % (10 mg): 100%
Subjects with investigator defined drug-related AEs, % (10 mg): 100%
Subjects with maximum CTC Grade 1, % (10 mg): 0%
Subjects with maximum CTC Grade 2, % (10 mg): 33.3%
Subjects with maximum CTC Grade 3, % (10 mg): 66.7%
Subjects with maximum CTC Grade 4, % (10 mg): 0%
Subjects with maximum CTC Grade 5, % (10 mg): 0%
Subjects with serious AEs, % (10 mg): 33.3%
AEs leading to Discontinuation: Dose limiting toxicity, % (15 mg): 0%
AEs leading to Discontinuation: Other adverse event, % (15 mg): 0%
Patients with Dose limiting toxicity, % (15 mg): 0%
Serious AEs: Cogenital Anomaly or Birth Defect, % (15 mg): 0%
Serious AEs: Is Life Threatening, % (15 mg): 0%
Serious AEs: Other Medically Important Serious Event, % (15 mg): 0%
Serious AEs: Persists of Signif. Disability/Incapacity, % (15 mg): 0%
Serious AEs: Requires or Prolongs Hospitalization, % (15 mg): 33.3%
Serious AEs: Results in Death, % (15 mg): 0%
Subjects with AEs leading to Discontinuation of trial drug, % (15 mg): 0%
Subjects with AEs leading to dose reduction of trial drug, % (15 mg): 0%
Subjects with any AE, % (15 mg): 100%
Subjects with investigator defined drug-related AEs, % (15 mg): 100%
Subjects with maximum CTC Grade 1, % (15 mg): 33.3%
Subjects with maximum CTC Grade 2, % (15 mg): 66.7%
Subjects with maximum CTC Grade 3, % (15 mg): 0%
Subjects with maximum CTC Grade 4, % (15 mg): 0%
Subjects with maximum CTC Grade 5, % (15 mg): 0%
Subjects with serious AEs, % (15 mg): 33.3%
AEs leading to Discontinuation: Dose limiting toxicity, % (20 mg): 0%
AEs leading to Discontinuation: Other adverse event, % (20 mg): 0%
Patients with Dose limiting toxicity, % (20 mg): 0%
Serious AEs: Cogenital Anomaly or Birth Defect, % (20 mg): 0%
Serious AEs: Is Life Threatening, % (20 mg): 0%
Serious AEs: Other Medically Important Serious Event, % (20 mg): 33.3%
Serious AEs: Persists of Signif. Disability/Incapacity, % (20 mg): 0%
Serious AEs: Requires or Prolongs Hospitalization, % (20 mg): 33.3%
Serious AEs: Results in Death, % (20 mg): 0%
Subjects with AEs leading to Discontinuation of trial drug, % (20 mg): 0%
Subjects with AEs leading to dose reduction of trial drug, % (20 mg): 0%
Subjects with any AE, % (20 mg): 100%
Subjects with investigator defined drug-related AEs, % (20 mg): 100%
Subjects with maximum CTC Grade 1, % (20 mg): 0%
Subjects with maximum CTC Grade 2, % (20 mg): 66.7%
Subjects with maximum CTC Grade 3, % (20 mg): 33.3%
Subjects with maximum CTC Grade 4, % (20 mg): 0%
Subjects with maximum CTC Grade 5, % (20 mg): 0%
Subjects with serious AEs, % (20 mg): 33.3%
AEs leading to Discontinuation: Dose limiting toxicity, % (30 mg): 0%
AEs leading to Discontinuation: Other adverse event, % (30 mg): 0%
Patients with Dose limiting toxicity, % (30 mg): 0%
Serious AEs: Cogenital Anomaly or Birth Defect, % (30 mg): 0%
Serious AEs: Is Life Threatening, % (30 mg): 0%
Serious AEs: Other Medically Important Serious Event, % (30 mg): 25.0%
Serious AEs: Persists of Signif. Disability/Incapacity, % (30 mg): 0%
Serious AEs: Requires or Prolongs Hospitalization, % (30 mg): 0%
Serious AEs: Results in Death, % (30 mg): 0%
Subjects with AEs leading to Discontinuation of trial drug, % (30 mg): 0%
Subjects with AEs leading to dose reduction of trial drug, % (30 mg): 50%
